Molecules are shown by their SMILES.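 Exposure lasted 48 hours, with cells grown in 96-well plates and compounds tested at five concentrations. Here, GI50 denotes the concentration required for 50% inhibition of growth. The concentration for full growth arrest is given as TGI.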 Bounds are passed on as bounds.

Among the test systems are UACC-62 melanoma; HOP-62 NSCLC; SK-MEL-2 melanoma; SW-620 colon; EKVX NSCLC; 786-0 renal; HCT-116 colon; MDA-N; A498 renal; DU-145 prostate; HS 578T breast; A549 NSCLC; HCC-2998 colon; SNB-75 CNS; CCRF-CEM leukemia; OVCAR-8 ovarian.
Common to all, as to assay: NCI-60 cell line screen, 48 h

Consider `CCOC(=O)c1cc(C2=CCNC2=O)c(-c2cc(C)no2)[nH]1`, for which the TGI with UACC-62 melanoma, in the assay with HOP-62 NSCLC, with SK-MEL-2 melanoma, in the assay with SW-620 colon, in the assay with EKVX NSCLC and in the assay with 786-0 renal was greater than 100 µM in each case. Further, the TGI in the assay on HCT-116 colon, with MDA-N, in the assay with A498 renal, in the assay on DU-145 prostate, in the assay with HS 578T breast and in the assay on A549 NSCLC was greater than 100 µM in each case. Further, the TGI in the assay on HCC-2998 colon, with SNB-75 CNS, in the assay with CCRF-CEM leukemia and in the assay with OVCAR-8 ovarian was greater than 100 µM throughout.

Take `O=C(/C=C\c1ccsc1)c1ccccc1`: the TGI in the assay with UACC-62 melanoma was determined as 24.6 µM; in the assay on HOP-62 NSCLC, 30.7 µM; in the assay with SK-MEL-2 melanoma, 34.4 µM; in the assay with SW-620 colon, 12.3 µM; with EKVX NSCLC it was 27.7 µM; in the assay on 786-0 renal it was 19.7 µM. Also, the TGI with HCT-116 colon amounted to 14.5 µM; with MDA-N, 25.8 µM; with A498 renal, 15.5 µM; in the assay on DU-145 prostate, 25.4 µM; in the assay with HS 578T breast, 20.4 µM; with A549 NSCLC, 8.48 µM. In addition, the TGI in the assay with HCC-2998 colon is 24.3 µM; with SNB-75 CNS, 24.3 µM; in the assay on CCRF-CEM leukemia it was 3.41 µM; with OVCAR-8 ovarian, 27.2 µM.

On to `COc1ccc(/C=C2\C[C@H]3[C@@H]4CC=C5C[C@@H](OC(C)=O)CC[C@]5(C)[C@H]4CC[C@]3(C)C2=O)cc1OC`, for which the TGI is greater than 100 µM in the assay with UACC-62 melanoma; greater than 100 µM in the assay on HOP-62 NSCLC; greater than 100 µM with SK-MEL-2 melanoma; greater than 100 µM in the assay with SW-620 colon; 66.5 µM in the assay on EKVX NSCLC; greater than 100 µM in the assay on 786-0 renal. For the same compound, the TGI with HCT-116 colon, in the assay with MDA-N, in the assay on A498 renal, with DU-145 prostate, in the assay on HS 578T breast and in the assay on A549 NSCLC was greater than 100 µM throughout. Also, the TGI in the assay on HCC-2998 colon, in the assay with SNB-75 CNS, with CCRF-CEM leukemia and in the assay with OVCAR-8 ovarian was greater than 100 µM each time.

On to `COC(O)C(=O)c1c2c(cc3c1CCC3)CCC2` (stereo not drawn), for which the TGI in the assay with UACC-62 melanoma, in the assay on HOP-62 NSCLC, in the assay on SK-MEL-2 melanoma, with SW-620 colon, in the assay with EKVX NSCLC and in the assay on 786-0 renal was greater than 100 µM throughout. The TGI in the assay with HCT-116 colon, with MDA-N, in the assay with A498 renal, with DU-145 prostate, in the assay with HS 578T breast and in the assay with A549 NSCLC was greater than 100 µM each time. Further, the TGI in the assay on HCC-2998 colon, in the assay with SNB-75 CNS, in the assay with CCRF-CEM leukemia and in the assay with OVCAR-8 ovarian was greater than 100 µM in each case.

Turning to `C[C@@H](Oc1ccc(Oc2cnc3ccc(Cl)cc3n2)cc1)C(=O)O`, the results for the GI50 in the assay with UACC-62 melanoma, in the assay with HOP-62 NSCLC and with HS 578T breast were 46.4 µM, greater than 85.3 µM and 69.6 µM, respectively. In addition, the TGI with UACC-62 melanoma, with HOP-62 NSCLC, with SK-MEL-2 melanoma, in the assay on SW-620 colon, in the assay on EKVX NSCLC and in the assay on 786-0 renal was greater than 100 µM each time. Moreover, the TGI with HCT-116 colon, with MDA-N, with A498 renal, in the assay on DU-145 prostate, in the assay with HS 578T breast and with A549 NSCLC was greater than 100 µM throughout. The TGI with HCC-2998 colon, with SNB-75 CNS, in the assay on CCRF-CEM leukemia and in the assay with OVCAR-8 ovarian was greater than 100 µM throughout.

Turning to `Brc1c2c(c(Br)c3nsnc13)N=S=N2`, the TGI is 33.5 µM in the assay on UACC-62 melanoma; 15.9 µM with HOP-62 NSCLC; 51 µM in the assay on SK-MEL-2 melanoma; greater than 68.5 µM with SW-620 colon; greater than 74 µM with EKVX NSCLC; 41.6 µM in the assay on 786-0 renal. The TGI in the assay with HCT-116 colon is greater than 69.2 µM; in the assay on MDA-N, greater than 73 µM; in the assay on A498 renal, greater than 96.4 µM; in the assay with DU-145 prostate, greater than 100 µM; with HS 578T breast, 75 µM; in the assay on A549 NSCLC it was greater than 100 µM. Also, the TGI in the assay on HCC-2998 colon is greater than 100 µM; in the assay on SNB-75 CNS, 63.7 µM; with CCRF-CEM leukemia, 5.2 µM; with OVCAR-8 ovarian, 79.7 µM.

In the case of `Cc1cccc2c(N)c3cccc(C(=O)NCC[N+](C)(C)Cc4ccc(S(C)(=O)=O)cc4)c3nc12`, the TGI in the assay with UACC-62 melanoma, with HOP-62 NSCLC, in the assay with SK-MEL-2 melanoma, in the assay on SW-620 colon, with EKVX NSCLC and in the assay on 786-0 renal was greater than 100 µM each time. Further, the TGI with HCT-116 colon is greater than 100 µM; in the assay with MDA-N, greater than 100 µM; in the assay on A498 renal it was 65 µM; with DU-145 prostate, greater than 100 µM; in the assay on HS 578T breast it was greater than 100 µM; in the assay on A549 NSCLC, greater than 100 µM. The TGI with HCC-2998 colon was greater than 100 µM; in the assay on SNB-75 CNS, greater than 100 µM; with CCRF-CEM leukemia, greater than 62 µM; with OVCAR-8 ovarian, greater than 100 µM.

With `Cc1ccc(NC(=O)CC(=O)N2N=C(N3CCCCC3)CC2c2ccccc2)cc1` (stereo not drawn), the TGI in the assay with UACC-62 melanoma, with HOP-62 NSCLC, in the assay on SK-MEL-2 melanoma, in the assay with SW-620 colon, in the assay with EKVX NSCLC and in the assay with 786-0 renal was greater than 100 µM throughout. Moreover, the TGI with HCT-116 colon, in the assay on MDA-N, in the assay with A498 renal, with DU-145 prostate, in the assay with HS 578T breast and with A549 NSCLC was greater than 100 µM throughout. In addition, the TGI with HCC-2998 colon, in the assay with SNB-75 CNS, in the assay with CCRF-CEM leukemia and with OVCAR-8 ovarian was greater than 100 µM in each case.

For the compound `CC(C)(C)C(O)CC(O)(C(F)(F)F)C(F)(F)F` (stereo not drawn), the TGI in the assay on UACC-62 melanoma, in the assay with HOP-62 NSCLC, in the assay on SK-MEL-2 melanoma, in the assay with SW-620 colon, in the assay on EKVX NSCLC and with 786-0 renal was greater than 100 µM throughout. The TGI in the assay with HCT-116 colon, in the assay on MDA-N, in the assay on A498 renal, in the assay with DU-145 prostate, in the assay on HS 578T breast and in the assay on A549 NSCLC was greater than 100 µM in each case. In addition, the TGI with HCC-2998 colon, in the assay on SNB-75 CNS, in the assay with CCRF-CEM leukemia and with OVCAR-8 ovarian was greater than 100 µM throughout.

Turning to `COC(=O)CNC(=O)CNC(=O)CSc1nnc(COc2ccc(Cl)cc2)n1-c1ccccc1`, the TGI with UACC-62 melanoma was 33.5 µM; with HOP-62 NSCLC, greater than 100 µM; in the assay with SK-MEL-2 melanoma, 43.9 µM; with SW-620 colon, greater than 100 µM; in the assay with EKVX NSCLC, greater than 100 µM; with 786-0 renal, greater than 100 µM. Also, the TGI with HCT-116 colon was greater than 100 µM; in the assay with MDA-N it was 55.4 µM; with A498 renal, greater than 100 µM; with DU-145 prostate, greater than 100 µM; with HS 578T breast it was 78.3 µM; with A549 NSCLC, greater than 100 µM. The TGI with HCC-2998 colon was greater than 100 µM; in the assay on SNB-75 CNS, 60.2 µM; in the assay on CCRF-CEM leukemia it was 57.4 µM; in the assay on OVCAR-8 ovarian, greater than 100 µM.

Consider `COc1ccc(OC)c(N=Cc2cc(OC)c(OC)c(OC)c2)c1`, for which the TGI in the assay with UACC-62 melanoma, with HOP-62 NSCLC, with SK-MEL-2 melanoma, in the assay with SW-620 colon, in the assay with EKVX NSCLC and in the assay with 786-0 renal was greater than 100 µM throughout. For the same compound, the TGI in the assay on HCT-116 colon, with MDA-N, in the assay on A498 renal, in the assay on DU-145 prostate, with HS 578T breast and in the assay with A549 NSCLC was greater than 100 µM in each case. In addition, the TGI was greater than 100 µM in the assay on HCC-2998 colon, greater than 100 µM in the assay on SNB-75 CNS, 66.4 µM with CCRF-CEM leukemia and greater than 100 µM in the assay on OVCAR-8 ovarian.

With `COc1ccc(C(OC(=O)[C@H](O[Si](C)(C)C(C)(C)C)[C@@H](NC(=O)c2ccccc2)c2ccccc2)c2ccc(OC)cc2)cc1`, the TGI in the assay with UACC-62 melanoma, with HOP-62 NSCLC, in the assay on SK-MEL-2 melanoma, with SW-620 colon, with EKVX NSCLC and in the assay on 786-0 renal was greater than 100 µM in each case. In addition, the TGI in the assay with HCT-116 colon, in the assay on MDA-N, in the assay on A498 renal, in the assay with DU-145 prostate, in the assay with HS 578T breast and with A549 NSCLC was greater than 100 µM throughout. Besides, the TGI in the assay with HCC-2998 colon, in the assay on SNB-75 CNS, with CCRF-CEM leukemia and with OVCAR-8 ovarian was greater than 100 µM in each case.

Take `O=S(=O)(O)c1ccc(Nc2ccnc3ccccc23)cc1`: the TGI in the assay on UACC-62 melanoma, in the assay with HOP-62 NSCLC, in the assay on SK-MEL-2 melanoma, in the assay on SW-620 colon, with EKVX NSCLC and in the assay on 786-0 renal was greater than 100 µM each time. Moreover, the TGI in the assay on HCT-116 colon, in the assay on MDA-N, with A498 renal, with DU-145 prostate, with HS 578T breast and with A549 NSCLC was greater than 100 µM in each case. For the same compound, the TGI in the assay on HCC-2998 colon, in the assay on SNB-75 CNS, in the assay with CCRF-CEM leukemia and with OVCAR-8 ovarian was greater than 100 µM in each case.

As for `COc1cccc(C2c3cc4c(cc3OC(NNC(N)=O)C2C)OCO4)c1O` (stereo not drawn), the TGI with UACC-62 melanoma was greater than 100 µM; with HOP-62 NSCLC, 54 µM; with SK-MEL-2 melanoma it was 44.2 µM; in the assay on SW-620 colon, greater than 100 µM; in the assay with EKVX NSCLC it was greater than 50.9 µM; with 786-0 renal, greater than 69.3 µM. Further, the TGI in the assay on HCT-116 colon is greater than 38.9 µM; with MDA-N, 0.653 µM; with A498 renal, 42.4 µM; with DU-145 prostate it was greater than 100 µM; in the assay on HS 578T breast it was greater than 50.8 µM; in the assay with A549 NSCLC, greater than 39.8 µM. The TGI was 35.4 µM in the assay on HCC-2998 colon, greater than 69.4 µM with SNB-75 CNS, greater than 100 µM in the assay with CCRF-CEM leukemia and greater than 33.8 µM in the assay on OVCAR-8 ovarian.

For the compound `Cc1ccc(C(=O)O)c(/C=C2\Cc3cc(C)cc(C)c3C2=O)c1`, the TGI in the assay with UACC-62 melanoma, in the assay with HOP-62 NSCLC, in the assay on SK-MEL-2 melanoma, in the assay on SW-620 colon, in the assay on EKVX NSCLC and with 786-0 renal was greater than 100 µM each time. The TGI in the assay with HCT-116 colon, in the assay with MDA-N, with A498 renal, in the assay on DU-145 prostate, with HS 578T breast and in the assay on A549 NSCLC was greater than 100 µM in each case. Also, the TGI in the assay on HCC-2998 colon, with SNB-75 CNS, in the assay on CCRF-CEM leukemia and in the assay on OVCAR-8 ovarian was greater than 100 µM each time.
